Test results taken from patent US4342827A, “Production of enzymes” (Public Health Laboratory Service, Center for Applied …, priority 1978, dated 1982).

Target: T1, glycerol dehydrogenase (GDH) (Geobacillus stearothermophilus, UniProt P32816)
T1 construct: crude, partially or highly purified (DEAE-cellulose, triazine dye-agarose, gel filtration)
Assay: GDH assay against analogous substrates, activities (Vmax) relative to glycerol
Type: biochemical, Bacillus stearothermophilus
Details: for activity (Vmax) relative to glycerol (100%): 30° C., pH 8.5, substrate instead of glycerol
Protocol: The thermostable GDH enzymes produced from the strains of Bacillus stearothermophilus described above typically have a structure composed of four identical or similar sub-units each of molecular weight about 60,000 giving an overall molecular weight of about 240,000±30,000 daltons. When homogeneous and tested by the assay method described below they have a specific activity of at least 5 and normally about 10 to 30 units per mg protein at 30° C. and pH 8.5. When tested under similar conditions against analogous substrates the activities (Vmax) relative to glycerol (100%) were:
Assays for GDH activity were carried out by the following procedure and all references to activities in the present description and claims refer to activity as measured by this assay.
(i) 0.25 M Triethanolamine-HCl (pH 8.5).
(iii) 10 mg/ml NAD (nicotinamide adenine dinucleotide)
600 μl, H2 O, 200 μl triethanolamine-HCl solution, 25 μl NAD solution and 5 to 200 μl of the sample to be assayed were mixed in a cuvette (pathlength 1 cm.). After pre-equilibration to attain 30° C., 100 μl of glycerol solution was added to initiate the reaction.
The reduction of NAD was followed by spectrophotometric means, by observing the absorbance of the solution at 340 nm. Either a water or reagent blank was used, and units were expressed as μmoles of NADH formed per minute at 30° C. with dilution to give ΔOD340 in the range 0.06 to 0.12 per minute.

T1 sequence (P32816 whole entry): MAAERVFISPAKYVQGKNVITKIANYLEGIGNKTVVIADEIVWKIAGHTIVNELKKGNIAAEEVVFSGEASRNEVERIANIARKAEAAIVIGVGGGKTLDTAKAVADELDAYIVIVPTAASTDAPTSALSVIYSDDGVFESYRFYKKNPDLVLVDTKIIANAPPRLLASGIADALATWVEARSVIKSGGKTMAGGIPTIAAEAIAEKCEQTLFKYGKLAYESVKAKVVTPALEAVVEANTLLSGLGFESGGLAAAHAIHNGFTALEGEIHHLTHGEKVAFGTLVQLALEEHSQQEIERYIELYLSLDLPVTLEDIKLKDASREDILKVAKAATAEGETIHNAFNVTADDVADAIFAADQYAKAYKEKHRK

Row | Structure (SMILES) | effect on GDH activity (high concentrations) | activity (Vmax) relative to glycerol (100%) [%]
1 | N [NH4^+ ions] | inhibited | 
2 | O=C(CO)CO [dihydroxyacetone] |  | < 10
3 | O=C(O)C(O)CO (stereo not drawn) [glyceric acid] |  | < 10
4 | CC(O)CO (stereo not drawn) [propane1, 2 diol] |  | 165
5 | OCCC(O)S (stereo not drawn) [3-mercapto-propane1, 3 diol] |  | 49
6 | OCCCO [propane1, 3diol] |  | 16
